Laboratory results: patent US20230339886A1 (University of Florida Research Foundation, Incorporated, priority 2020, published 2023)

Key:
[1] = target: T1, REV-ERBα LBD (human; residues 281-614 Δ324-422) (Homo sapiens, UniProt P20393, DEL324-422); assay: TR-FRET corepressor interaction assay (REV-ERBα LBD, FITC-SMRT peptide); format: biochemical; settings: Table 2, read-out: REVERBα agonism (EC50 class, FRET assay)
T1 construct: 6×Histag-REV-ERBα LBD (human; residues 281-614 Δ324-422); made in house; host or cells: Escherichia coli
T1 sequence (P20393 with tags, fused parts or gaps DEL324-422): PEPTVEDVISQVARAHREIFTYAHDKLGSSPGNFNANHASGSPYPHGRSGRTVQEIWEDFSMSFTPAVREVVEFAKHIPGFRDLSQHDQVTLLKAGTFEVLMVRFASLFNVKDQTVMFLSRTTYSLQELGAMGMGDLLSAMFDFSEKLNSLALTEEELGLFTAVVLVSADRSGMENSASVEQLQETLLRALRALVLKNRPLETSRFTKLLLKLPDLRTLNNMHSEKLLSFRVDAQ
T1 sequence (Q9Y618 2335-2356 partner limits assumed): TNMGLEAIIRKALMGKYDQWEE
Procedure, shortened: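 Compound serial dilutions (in DMSO, triplicate) incubated 2 h at 4 °C; Tb donor excited at 340 nm, emission read at 495 nm and FITC acceptor at 520 nm. TR-FRET ratio (520/495 nm) plotted against ligand concentration and fitted to a sigmoidal dose-response curve.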

[2] = target: T2, REV-ERBβ (Homo sapiens, UniProt Q14995); assay: TR-FRET corepressor interaction assay (REV-ERBβ, FITC-SMRT peptide); format: biochemical; settings: Table 2, read-out: REVERBβ agonism (EC50 class, FRET assay)
T2 construct: 6×Histag-REV-ERBα LBD (human; residues 381-579); made in house; host or cells: Escherichia coli
T2 sequence (Q14995 381-579): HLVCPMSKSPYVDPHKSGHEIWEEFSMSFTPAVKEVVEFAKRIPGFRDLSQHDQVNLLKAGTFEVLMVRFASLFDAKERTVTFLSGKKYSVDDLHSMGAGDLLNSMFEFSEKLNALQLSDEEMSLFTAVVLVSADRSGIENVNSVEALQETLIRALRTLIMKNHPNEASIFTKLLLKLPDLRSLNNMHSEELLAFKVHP
Method: TR-FRET corepressor interaction assay. The time-resolved fluorescence resonance energy transfer (TR-FRET) assay was performed in black low-volume 384-well plates (Greiner). […] Ligand stocks were prepared via serial dilution in DMSO, added to wells in triplicate, and plates were incubated at 4° C. for 2 h and read using a BioTek Synergy Neo multimode plate reader. The Tb donor was excited at 340 nm; its fluorescence emission was monitored at 495 nm, and the acceptor FITC emission was measured at 520 nm; and the TR-FRET ratio was calculated as the signal at 520 nm divided by the signal at 495 nm. Data were plotted using GraphPad Prism as TR-FRET ratio vs. ligand concentration and fit to sigmoidal dose response curve equation.
Exemplary compounds of the present disclosure were assayed as described above to assess agonism of REV-ERBα and REV-ERBβ.

| EC50 [1] [nM] | EC50 [2] [nM] | Compound |
| --- | --- | --- |
| < 500 | 500 to 3000 | CC(C)(C)Cc1cn(CCNS(=O)(=O)C2CC2)c2ccc(-c3cccc(F)c3C(F)(F)F)cc12 [Example 227, N-(2-(5-(3-fluoro-2-(trifluoromethyl)phenyl)-3-neopentyl-1H-indol-1-yl)ethyl) cyclopropanesulfonamide] |
| 500 to 3000 | > 3000 | Cc1ccc2c(c1)c(CC(C)(C)C)cn2CCNS(=O)(=O)C1CC1 [Example 296, N-(2-(5-methyl-3-neopentyl-1H-indol-1-yl)ethyl)cyclopropanesulfonamide] |
| 500 to 3000 | 500 to 3000 | CC(C)(C)Cc1cn(CCNS(=O)(=O)C2CC2)c2ccc(-c3c(Cl)cc(F)cc3Cl)cc12 [Example 297, N-(2-(5-(2,6-dichloro-4-fluorophenyl)-3-neopentyl-1H-indol-1-yl)ethyl) cyclo-propane sulfonamide] |
| 500 to 3000 | > 3000 | CC(C)(C)Cc1cn(CCNS(=O)(=O)C2CC2)c2ccc(Br)cc12 [Example 298, N-(2-(5-bromo-3-neopentyl-1H-indol-1-yl)ethyl)cyclopropanesulfonamide] |
| < 500 | 500 to 3000 | CC(C)(C)Cc1cn(CCNS(=O)(=O)C2CC2)c2ccc(-c3ccc(C(F)(F)F)cc3C(F)(F)F)cc12 [Example 299, N-(2-(5-(2,4-bis(trifluoromethyl)phenyl)-3-neopentyl-1H-indol-1-yl)ethyl)cyclo-propanesulfonamide] |
| < 500 | 500 to 3000 | CC(C)(C)Cc1cn(CCNS(=O)(=O)C2CC2)c2ccc(-c3ccc(C(F)(F)F)cc3Cl)cc12 [Example 300, N-(2-(5-(2-chloro-4-(trifluoromethyl)phenyl)-3-neopentyl-1H-indol-1-yl)ethyl) cyclopropanesulfonamide] |
| < 500 | 500 to 3000 | CC(C)(C)Cc1cn(CCNS(=O)(=O)C2CC2)c2ccc(-c3ccc(F)cc3C(F)(F)F)cc12 [Example 301, N-(2-(5-(4-fluoro-2-(trifluoromethyl)phenyl)-3-neopentyl-1H-indol-1-yl)ethyl) cyclopropanesulfonamide] |
| < 500 | < 500 | Cc1ccc2c([C@H](NS(=O)(=O)C3CC3)C(F)(F)F)cn(CC(C)C)c2c1 [Example 309, (S)—N-(2,2,2-trifluoro-1-(1-isobutyl-6-methyl-1H-indol-3-yl)ethyl)cyclopropanesulfonamide] |
| < 500 | 500 to 3000 | CC(C)Cn1cc([C@H](NS(=O)(=O)C2CC2)C(F)(F)F)c2ccc(C3CC3)cc21 [Example 310, (S)—N-(1-(6-cyclopropyl-1-isobutyl-1H-indol-3-yl)-2,2,2-trifluoroethyl)cyclopropanesulfonamide] |
| < 500 | > 3000 | CC(C)Cn1cc([C@H](NS(=O)(=O)C2CC2)C(F)(F)F)c2cc(F)c(-c3ccccc3C(F)(F)F)cc21 [Example 313, (S)—N-(2,2,2-trifluoro-1-(5-fluoro-1-isobutyl-6-(2-(trifluoromethyl)phenyl)-1H-indol-3-yl)ethyl)cyclopropanesulfonamide] |
| < 500 | 500 to 3000 | CC(C)(C)Cn1cc([C@H](NS(=O)(=O)C2CC2)C(F)(F)F)c2ccc(-c3ccccc3C(F)(F)F)cc21 [Example 322, (S)—N-(2,2,2-trifluoro-1-(1-neopentyl-6-(2-(trifluoromethyl)phenyl)-1H-indol-3-yl)ethyl)cyclopropanesulfonamide] |
| < 500 | > 3000 | CN(C)S(=O)(=O)N[C@@H](c1cn(CC(C)(C)C)c2cc(-c3ccccc3C(F)(F)F)ccc12)C(F)(F)F [Example 323, {[(1S)-1-[1-(2,2-dimethylpropyl)-6-[2-(trifluoromethyl)phenyl]-1H-indol-3-yl]-2,2,2-trifluoroethyl]sulfamoyl}dimethylamine] |
| < 500 | > 3000 | CN(C)S(=O)(=O)N[C@@H](c1cn(CC(C)(C)C)c2cc(C3CC3)c(F)cc12)C(F)(F)F [Example 328, {[(1S)-1-[6-cyclopropyl-1-(2,2-dimethylpropyl)-5-fluoro-1H-indol-3-yl]-2,2,2-trifluoroethyl]sulfamoyl}dimethylamine] |
| < 500 | > 3000 | CC(C)Cn1cc([C@H](NS(=O)(=O)N(C)C)C(F)(F)F)c2cc(F)c(C3CC3)cc21 [Example 329, {[(1S)-1-[6-cyclopropyl-5-fluoro-1-(2-methylpropyl)-1H-indol-3-yl]-2,2,2-trifluoroethyl]sulfamoyl}dimethylamine] |
| < 500 | 500 to 3000 | CC(C)(C)Cn1cc([C@H](NS(=O)(=O)C2CC2)C(F)(F)F)c2cc(F)c(-c3ccccc3Cl)cc21 [Example 331, (S)—N-(1-(6-(2-chlorophenyl)-5-fluoro-1-neopentyl-1H-indol-3-yl)-2,2,2-trifluoroethyl)cyclopropanesulfonamide] |
| < 500 | > 3000 | CC(C)Cn1cc([C@H](NS(=O)(=O)C2CC2)C(F)(F)F)c2ccc(C(C)C)cc21 [Example 333, (S)—N-(2,2,2-trifluoro-1-(1-isobutyl-6-isopropyl-1H-indol-3-yl)ethyl)cyclopropanesulfonamide] |
| < 500 | 500 to 3000 | CC(C)c1ccc2c([C@H](NS(=O)(=O)N(C)C)C(F)(F)F)cn(CC(C)(C)C)c2c1 [Example 340, {[(1S)-1-[1-(2,2-dimethylpropyl)-6-(propan-2-yl)-1H-indol-3-yl]-2,2,2-trifluoroethyl]sulfamoyl}dimethylamine] |
| < 500 | > 3000 | CC(C)(C)Cn1cc([C@H](NS(=O)(=O)C2CC2)C(F)(F)F)c2cc(F)c(Br)cc21 [Example 342, (S)—N-(1-(6-bromo-5-fluoro-1-neopentyl-1H-indol-3-yl)-2,2,2-trifluoroethyl)cyclopropanesulfonamide] |
| < 500 | > 3000 | CC(C)Cc1cn(CCNS(=O)(=O)C2CC2)c2ncc(-c3ccncc3)cc12 [Example 365, N-(2-(3-isobutyl-5-(pyridin-4-yl)-1H-pyrrolo[2,3-b]pyridin-1-yl)ethyl)cyclopropanesulfonamide] |
